According to patent US7863279B2, “Triazolopyridine carboxamide derivatives and triazolopyrimidine carboxamide derivatives, preparation thereof and therapeutic use thereof” (sanofi-aventis, priority 2007, dated 2011):

Columns and labels:
[1] = target: T1, MGL (monoacyl glycerol lipase) enzyme (Mus musculus, UniProt O35678); experiment: Radioenzymatic assay of [3H] 2-oleoyl glycerol hydrolysis by MGL; type: biochemical; conditions: mouse brain homogenate; 20 min preincubation; 50 μM 2-OG, 20 min at ambient temperature; read-out: IC50 (concentration inhibiting 50% of the control enzyme activity of MGL)
T1 construct: the source of MGL enzyme is a homogenate of mouse brain from which the cerebellum and the medulla oblongata have been removed; from tissue; host or cells: mouse brain homogenate (cerebellum and medulla oblongata removed)
T1 sequence (O35678 1-303): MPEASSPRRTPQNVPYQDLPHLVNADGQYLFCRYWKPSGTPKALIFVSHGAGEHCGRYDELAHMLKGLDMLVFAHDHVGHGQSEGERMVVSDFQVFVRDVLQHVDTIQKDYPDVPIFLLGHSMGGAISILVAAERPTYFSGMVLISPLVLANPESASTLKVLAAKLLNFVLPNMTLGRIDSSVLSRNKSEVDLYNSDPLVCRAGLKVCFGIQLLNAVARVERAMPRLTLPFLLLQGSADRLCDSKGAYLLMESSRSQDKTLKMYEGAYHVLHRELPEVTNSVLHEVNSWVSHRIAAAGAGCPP
Protocol: Tests comprised measuring the activity, in vitro, of the compounds of the invention on the MGL enzyme.
The inhibitory activity was measured in a radioenzymatic assay based on measuring the product of hydrolysis of 2-oleoyl glycerol ([^3H] 2-OG) by MGL. The products of hydrolysis of [^3H] 2-OG, labeled on the glycerol, are oleic acid and [^3H] glycerol, and the source of MGL enzyme is a homogenate of mouse brain from which the cerebellum and the medulla oblongata have been removed. The mouse brains are removed, and stored at −80° C. until they are used, or homogenized immediately for twice 5 seconds using a Precellys apparatus at 5000 rpm (Bertin) in a 10 mM Tris-HCl, 150 mM NaCl, 1 mM EDTA buffer (pH 8) at 4° C. The concentration of the homogenates is then adjusted to 7.5 μg/μl.
(§1) The dilution series of the compounds is prepared from stock solutions at 20 mM in 100% DMSO. […]
Assaying of the MGL activity is carried out in a 96-well microplate in a final reaction volume of 100 μl. […] After stirring for 10 minutes, the microplate is centrifuged for 15 minutes at 4000 g and a 30 μl aliquot of the aqueous phase containing the [^3H] glycerol produced is removed and then counted for 5 minutes by liquid scintillation (Wallac 1450 Microbeta). […]

[2] = target: T2, FAAH (Fatty Acid Amide Hydrolase) enzyme (Mus musculus, UniProt O08914); experiment: Radioenzymatic assay of [3H] anandamide hydrolysis by FAAH; type: biochemical; conditions: mouse brain homogenate; 20 min preincubation; 10 μM anandamide, 20 min at ambient temperature; read-out: IC50 (concentration inhibiting 50% of the control enzyme activity of FAAH)
T2 construct: the source of FAAH enzyme is a homogenate of mouse brain from which the cerebellum and the medulla oblongata have been removed; from tissue; host or cells: mouse brain homogenate (cerebellum and medulla oblongata removed)
T2 sequence (O08914 1-579): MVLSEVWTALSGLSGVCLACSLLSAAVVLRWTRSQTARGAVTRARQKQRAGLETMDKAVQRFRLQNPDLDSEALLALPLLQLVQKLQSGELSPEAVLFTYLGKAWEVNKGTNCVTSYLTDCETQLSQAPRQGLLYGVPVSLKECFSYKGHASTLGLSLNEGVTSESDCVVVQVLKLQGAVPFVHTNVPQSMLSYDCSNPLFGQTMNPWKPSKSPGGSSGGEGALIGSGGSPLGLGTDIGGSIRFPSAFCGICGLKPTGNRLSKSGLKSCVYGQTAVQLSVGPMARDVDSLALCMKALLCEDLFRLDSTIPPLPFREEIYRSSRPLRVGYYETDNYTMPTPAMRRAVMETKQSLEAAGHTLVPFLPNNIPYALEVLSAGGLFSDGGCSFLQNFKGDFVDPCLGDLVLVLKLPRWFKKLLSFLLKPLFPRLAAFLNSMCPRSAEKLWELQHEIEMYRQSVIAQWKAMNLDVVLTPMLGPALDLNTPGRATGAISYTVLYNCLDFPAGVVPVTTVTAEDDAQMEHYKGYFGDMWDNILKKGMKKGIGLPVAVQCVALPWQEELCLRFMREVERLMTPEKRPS
Protocol: Tests comprised measuring the activity, in vitro, of the compounds of the invention on the FAAH enzyme.
The inhibitory activity was measured in a radioenzymatic assay based on measuring the product of hydrolysis (ethanolamine [1-3H]) of anandamide by FAAH (Life Science (1995), 56, 1999-2005 and Journal of Pharmacology and Experimented Therapeutics (1997), 283, 729-734). The products of hydrolysis of [^3H] anandamide, labeled on ethanolamine, are arachidonic acid and [^3H]ethanolamine, and the source of FAAH enzyme is a homogenate of mouse brain from which the cerebellum and the medulla oblongata have been removed. The mouse brains are removed, and stored at −80° C. until they are used, or homogenized immediately for twice 5 seconds using a Precellys apparatus at 5000 rpm (Bertin) in a 10 mM Tris-HCl, 150 mM NaCl, 1 mM EDTA buffer (pH 8) at 4° C. The concentration of the homogenates is then adjusted to 20 μg/μl.
as §1
Assaying of the FAAH activity is carried out in a 96-well microplate in a final reaction volume of 70 μl. […] After stirring for 10 minutes, the microplate is centrifuged for 15 minutes at 4000 g and a 30 μl aliquot of the aqueous phase containing the [^3H]ethanolamine produced is removed and then counted for 5 minutes by liquid scintillation (Wallac 1450 Microbeta).

Row | SMILES | IC50 [1] [nM] | IC50 [2] [nM] | melting point [°C]
1 | O=C(N1CCN(c2cccc(C(F)(F)F)c2)CC1)n1nnc2ccc(-c3ccc(Cl)cc3)nc21 [Compound No. 3, [5-(4-chlorophenyl)[1,2,3]triazolo[4,5-b]pyridin-3-yl][4-(3-trifluoromethylphenyl)piperazin-1-yl]methanone] | 2 | 2 | 139 to 141
2 | O=C(N1CCN(c2cccc(C(F)(F)F)c2)CC1)n1nnc2ccc(-c3ccccc3Cl)nc21 [compound 1, [5-(2-chlorophenyl)[1,2,3]triazolo[4,5-b]pyridin-3-yl][4-(3-trifluoromethylphenyl)piperazin-1-yl]methanone] | – | – | 69 to 71
3 | O=C(N1CCN(c2cccc(C(F)(F)F)c2)CC1)n1nnc2ccc(-c3cccc(Cl)c3)nc21 [compound 2, [5-(3-chlorophenyl)[1,2,3]triazolo[4,5-b]pyridin-3-yl][4-(3-trifluoromethylphenyl)piperazin-1-yl]methanone] | – | – | 102 to 104
4 | O=C(N1CCN(c2cccc(C(F)(F)F)c2)CC1)n1nnc2ccc(-c3ccoc3)nc21 [compound 4, (5-furan-3-yl[1,2,3]triazolo[4,5-b]pyridin-3-yl)[4-(3-trifluoromethylphenyl)piperazin-1-yl]methanone] | – | – | 68 to 70

Next, values leading:

Row | IC50 [1] [nM] | IC50 [2] [nM] | melting point [°C] | SMILES
5 | – | – | 93 to 95 | O=C(N1CCN(c2cccc(C(F)(F)F)c2)CC1)n1nnc2ccc(-c3ccsc3)nc21 [compound 5, (5-thiophen-3-yl[1,2,3]triazolo[4,5-b]pyridin-3-yl)[4-(3-trifluoromethylphenyl)piperazin-1-yl]methanone]
6 | – | – | 90 to 92 | O=C(N1CCN(c2cccc(C(F)(F)F)c2)CC1)n1nnc2ccc(-c3ccc4ccccc4c3)nc21 [compound 6, (5-naphthalen-2-yl[1,2,3]triazolo[4,5-b]pyridin-3-yl)[4-(3-trifluoromethylphenyl)piperazin-1-yl]methanone]
